US8178515B2, “β-hydroxy-γ-aminophosphonates and methods for the preparation and use thereof” (Nucitec S.A. de C.V., priority 2008, dated 2012)

Tests used:
[1] = system: WRL-68 cells
Experimental: (§1) Two cell lines were used for this study: 293Q cells derived from normal epithelial cells of human fetal kidney (CRL-1573 ATCC) and WRL-68 cells derived from epithelial cells of human liver (CRL-48 ATCC). Cell lines were cultured in minimal essential medium (MEM, GIBCO BRL Inc., Grand Island, N.Y.), supplemented with nonessential amino acids (GIBCO BRL Inc., Grand Island, N.Y.), 10% fetal calf serum (GIBCO BRL Inc., Grand Island, N.Y.), 1-glutamine (2 mol/L), and antibiotics. Cells were plated in 100-mm culture dishes (10^6 cells/dish), and maintained at 37° C. under an atmosphere of 5% CO2 in humidified air. Subcultures were obtained by trypsinization (0.025% trypsin solution containing 0.01% N,N-diethyldithiocarbamic acid sodium salt, EDTA). For cytological investigation, 10^5 cells per mL of MEM medium were used. […] After incubation of the cells with the extract, they were collected for further cytological investigations.
(§2) Cells were incubated in 96-well plates. After 24 h, the medium was removed; the cells were washed twice with PBS and then incubated with analog. […] Cell viability was measured by a 3-(4,5-dimethylthiazol-2-yl)-2,5-diphenyltetrazolium bromide (MTT) assay (Wang et al., Journal Ocular. Pharm. Ther. 12: 35-43 (1996)). […] When the blue crystals were dissolved, the optical density was determined on a microplate reader at 450 nm. […]

[2] = system: WRL-68 cells; assay: Utilization of glucose in hepatic cells, in vitro hyperglycemia model (glucose and glycogen levels); type: cell-based, human; settings: 24 hours; for reduction of extracellular glucose levels: conditioned media, 30 mM D-glucose medium
Experimental: WRL-68 cells were thawed and maintained in culture with Minimal Essential Medium (Gibco BRL) containing 4 mM Glutamine, 1% non essential aminoacids (Gibco BRL), 10% Fetal Calf Serum (FCS), and 100 μg/ml of ampicillin. WRL-68 cells were seeded at […] in complete media in 75 cm^2 cell culture flasks, cells were maintained for 24 hours at 37° C. under an atmosphere of 5% CO2. The medium was changed after 24 hr. Cells were passaged by trypsinization using a 0.025% trypsin solution containing 0.01% N,N,-di-ethyldithiocarbamic acid sodium salt (EDTA). In order to evaluate the effect of analog of carnitine on utilization of glucose levels a model of hyperglycemia in vitro (Nakajina et al., J. Biol. Chem. 275:20880-20886 (2000)) was developed. Two days after plating, the medium was changed to F-12K containing 7 mM D-glucose and 10% fetal bovine serum, and the culture was continued for 2 more days. The cells were then cultured in serum-free F-12K medium containing 30 mM D-glucose for 24 h. Cells were treated with the diastereomeric mixture of compound 7 at concentrations of 0.01, 0.1, 1,10, 100 μM, and 1 mM and 2 mM during 24 hours. Samples of conditioned media and cell lysates were kept to […]. Glucose and glycogen levels were measured by using a Glucose PAP-SL Kit (Tech, USA) and glycogen assay kit (Biovision Research Products, California, USA).

[3] = system: chick embryos; assay: Teratogenicity assay in chick embryos; settings: for Deaths (embryos / total examined) / Embryonic region affected: Axial skeleton (abnormal embryos / total examined) / Embryonic region affected: CNS (abnormal embryos / total examined) / Embryonic region affected: Heart (abnormal embryos / total examined) / Embryonic region affected: Somites (abnormal embryos / total examined) / Embryonic region affected: Vasculature (abnormal embryos / total examined): 48 h of exposition
Experimental: A teratogenicity assay was carried out as described by Jelinek et al., Func. Devel. Morph. 4:317-23 (1994). Fertile White Leghorn chicken eggs were obtained from A.L.P.E. S.A. (Puebla, Mexico) and were stored at 6° C. Sixty fertilized eggs were weighed, sterilized, and divided into […]. First group served as a non-treated control. The next three were exposed to the diastereomeric mixture of compound 7 (1, 10, and 100 μM). The last group received caffeine (10 mg/mL) and as positive control. Test solutions (1 mL) were added to the air sac under sterile conditions. Each solution was injected after drilling into the shell at the blunt end of the egg; after injection, the holes were immediately sealed with melted paraffin wax. The eggs were then transferred and maintained in a forced draft incubator at 37.5° C. with a relative humidity of 55% until the desired stage of development was reached.
To determine the concentration dependency of the diastereomeric mixture of compound 7, a histological analysis was carried out. Embryos in each group were fixed in buffered formal saline (pH 7.4), dehydrated, and embedded in paraffin blocks. Paraffin tissue sections of 6 μm were stained with acetocarmine for routine histological examination.

[4] = system: 293Q cells
Experimental: as §1, §2

CC(C)CC(C(O)CP(=O)(O)O)[N+](C)(C)C.[I-] (single isomer, unassigned) [diastereomeric mixture of compound 7]
effects on cell proliferation (MTT) [1]: did not show citotoxicity or effects on cell proliferation
reduction of extracellular glucose levels ([2]; 1 μM): 16%
reduction of extracellular glucose levels ([2]; 10 μM): 18%
reduction of extracellular glucose levels ([2]; 100 μM): 23%
reduction of extracellular glucose levels ([2]; 1 mM): 30%
cellular glycogen levels ([2]; 2 mM): increase
reduction of extracellular glucose levels ([2]; 2 mM): 32%
changes in cellular glucose ([2]; any concentration (0.01 μM to 2 mM)): No changes
alterations in embryos (histological analysis) ([3]; in vivo): No alterations
effects on cell proliferation (MTT) [4]: did not show citotoxicity or effects on cell proliferation

Cn1c(=O)c2c(ncn2C)n(C)c1=O [Caffeine, caffeine, reference compound]
Deaths (embryos / total examined) ([3]; positive control, 10 mg/mL): 2/10
Embryonic region affected: Axial skeleton (abnormal embryos / total examined) ([3]; positive control, 10 mg/mL): 10/10
Embryonic region affected: CNS (abnormal embryos / total examined) ([3]; positive control, 10 mg/mL): 8/10
Embryonic region affected: Heart (abnormal embryos / total examined) ([3]; positive control, 10 mg/mL): 8/10
Embryonic region affected: Somites (abnormal embryos / total examined) ([3]; positive control, 10 mg/mL): 8/10
Embryonic region affected: Vasculature (abnormal embryos / total examined) ([3]; positive control, 10 mg/mL): 6/10

CC(C)C[C@@H]([C@@H](O)CP(=O)(O)O)[N+](C)(C)C.[I-] [compound 7, (2R,3S)-(2-hydroxy-5-methyl-3-trimethylamonium-hexyl)-phosphonic acid; iodide]
Deaths (embryos / total examined) ([3]; 1 μM): 0/10
Embryonic region affected: Axial skeleton (abnormal embryos / total examined) ([3]; 1 μM): 0/10
Embryonic region affected: CNS (abnormal embryos / total examined) ([3]; 1 μM): 0/10
Embryonic region affected: Heart (abnormal embryos / total examined) ([3]; 1 μM): 0/10
Embryonic region affected: Somites (abnormal embryos / total examined) ([3]; 1 μM): 0/10
Embryonic region affected: Vasculature (abnormal embryos / total examined) ([3]; 1 μM): 0/10
Deaths (embryos / total examined) ([3]; 100 μM): 0/10
Embryonic region affected: Axial skeleton (abnormal embryos / total examined) ([3]; 100 μM): 0/10
Embryonic region affected: CNS (abnormal embryos / total examined) ([3]; 100 μM): 0/10
Embryonic region affected: Heart (abnormal embryos / total examined) ([3]; 100 μM): 0/10
Embryonic region affected: Somites (abnormal embryos / total examined) ([3]; 100 μM): 0/10
Embryonic region affected: Vasculature (abnormal embryos / total examined) ([3]; 100 μM): 0/10
Deaths (embryos / total examined) ([3]; 1 mM): 0/10
Embryonic region affected: Axial skeleton (abnormal embryos / total examined) ([3]; 1 mM): 0/10
Embryonic region affected: CNS (abnormal embryos / total examined) ([3]; 1 mM): 0/10
Embryonic region affected: Heart (abnormal embryos / total examined) ([3]; 1 mM): 0/10
Embryonic region affected: Somites (abnormal embryos / total examined) ([3]; 1 mM): 0/10
Embryonic region affected: Vasculature (abnormal embryos / total examined) ([3]; 1 mM): 0/10
